# Test results as given in patent US7692014B2, “Inhibitors of the HIV integrase enzyme” (Pfizer, Inc., priority 2004, dated 2010).
# pIC50: −log10 of the molar value.
# Molecular target: T1, Full-length wild type HIV-1 integrase (SF1) (Human immunodeficiency virus type 1 group M subtype B, UniProt P04585)
# T1 construct: made in house; host or cells: E. coli BL21 (DE3), pET24a vector
# Test: Integrase strand-transfer scintillation proximity assay
# Assay type: biochemical
# Conditions: IC50, integrase strand-transfer SPA
# From the text: Integrase Strand-Transfer Scintillation Proximity Assay Oligonucleotides
# The annealed product represents preprocessed viral ds-DNA derived from the LTR U5 sequence of the viral genome. A ds-DNA control to test for non-specific interactions was made using a 3′ di-deoxy derivative of oligonucleotide #1 annealed to oligonucleotide #2. The CA overhang at the 5′ end of the non-biotinylated strand of the ds-DNA was created artificially by using a complimentary DNA oligonucleotide shortened by 2 base pairs. This configuration eliminates the requisite 3′ processing step of the integrase enzyme prior to the strand-transfer mechanism.
# Host ds-DNA was prepared as an unlabeled and [^3H]-thymidine labeled product from annealed oligonucleotide #3—5-[…]-3′ (SEQ ID NO: 3), and oligonucleotide #4—5′-[…]-3′ (SEQ ID NO: 4), both synthesized by TriLink BioTechnologies, Inc. (San Diego, Calif.). The annealed product had overhanging 3′ ends of poly(dA). […] The radiolabeled product was purified using a NENSORB cartridge and stored in stabilized aqueous solution (PerkinElmer).
# Reagents: Streptavidin-coated polyvinyltoluene (PVT) SPA beads were purchased from Amersham Biosciences (Piscataway, N.J.). Cesium chloride was purchased from Shelton Scientific, Inc. (Shelton, Conn.). White, polystyrene, flat-bottom, non-binding surface, 96-well plates were purchased from Corning. All other buffer components were purchased from Sigma (St. Louis, Mo.) unless otherwise indicated. Enzyme Construction: Full-length wild type HIV-1 integrase (SF1) sequence (amino acids 1-288) was constructed in a pET24a vector (Novagen, Madison, Wis.). […] Enzyme Purification: Full length wild-type HIV Integrase was expressed in E.coli BL21 (DE3) cells and induced with 1 mM isopropyl-1 thio-β-D-galactopyranoside (IPTG) when cells reached an optical density between 0.8-1.0 at 600 nm. Cells were lysed by microfluidation in 50 mM HEPES pH 7.0, 75 mM NaCl, 5 mM DTT, 1 mM 4-(2-Aminoethyl)benzenesulfonylfluoride HCl (AEBSF). Lysate was then centrifuged 20 minutes at 11 k rpm in GSA rotor in Sorvall RC-5B at 4° C. Supernant was discarded and pellet resuspended in 50 mM HEPES pH 7.0, 750 mM NaCl, 5 mM DTT, 1 mM AEBSF and homogenized in a 40 mL Dounce homogenizer for 20 minutes on ice. Homogenate was then centrifuged 20 minutes at 11 k rpm in SS34 rotor in Sorvall RC-5B at 4° C. Supernant was discarded and pellet resuspended in 50 mM HEPES pH 7.0, 750 mM NaCl, 25 mM CHAPS, 5 mM DTT, 1 mM AEBSF. Preparation was then centrifuged 20 minutes at 11 k rpm in SS34 rotor in Sorvall RC-5B at 4° C.
# Supernant was then diluted 1:1 with 50 mM HEPES pH 7.0, 25 mM CHAPS, 1 mM DTT, 1 mM AEBSF and loaded onto a Q-Sepharose column pre-equilibrated with 50 mM HEPES, pH 7.0, 375 mM NaCl, 25 mM CHAPS, 1 mM DTT, 1 mM AEBSF. The flow through peak was collected and NaCl diluted to 0.1 M with 50 mM HEPES pH 7.0, 25 mM CHAPS, 1 mM DTT, 0.5 mM AEBSF and loaded onto a SP-Sepharose column pre-equilibrated with 50 mM HEPES pH 7.0, 100 mM NaCl, 25 mM CHAPS, 1 mM DTT, 0.5 mM AEBSF. After washing the column with the equilibration buffer, a 100 to 400 mM NaCl gradient was run. The eluted integrase was concentrated and run on a S-300 gel diffusion column using 50 mM HEPES pH 7.0, 500 mM NaCl, 25 mM CHAPS, 1 mM DTT, 0.5 mM AEBSF. […] All columns were run in a 4° C. cold room.
# Viral DNA Bead Preparation: Streptavidin-coated SPA beads were suspended to 20 mg/mL in 25 mM 3-morpholinopropanesulfonic acid (MOPS) (pH 7.2) and 1.0% NaN3.
row,Compound,pIC50
1,"CN(Cc1ccccc1)Cc1cn(Cc2ccc(F)cc2)c2cnc3c(=O)n(O)ccc3c12 [Example 54, 1-{[benzyl(methyl)amino]methyl}-3-(4-fluorobenzyl)-7-hydroxy-3,7-dihydro-6H-pyrrolo[2,3-c]-1,7-naphthyridin-6-one]",7.87

# Same assay, conditions: integrase strand-transfer SPA; read-out: IC50
row,Compound,pIC50
1,"CN(C)Cc1cn(Cc2ccc(F)cc2)c2cnc3c(=O)n(O)ccc3c12 [Example 4, 1-[(dimethylamino)methyl]-3-(4-fluorobenzyl)-7-hydroxy-3,7-dihydro-6H-pyrrolo[2,3-c]-1,7-naphthyridin-6-one]",8.10
2,"O=C1CCN(Cc2cn(Cc3ccc(F)cc3)c3cnc4c(=O)n(O)ccc4c23)CCN1 [Example 19, 3-(4-fluorobenzyl)-7-hydroxy-1-[(5-oxo-1,4-diazepan-1-yl)methyl]-3,7-dihydro-6H-pyrrolo[2,3-c]-1,7-naphthyridin-6-one]",8.30
3,"O=C1c2ncc3c(ccn3Cc3ccc(F)cc3)c2CCCN1O [Example 45, 3-(4-fluorobenzyl)-7-hydroxy-7,8,9,10-tetrahydropyrrolo[3′,2′: 4,5]pyrido[2,3-c]azepin-6(3H)-one]",7.62
4,CC(C)(C)OC(=O)N1CCC(COCc2cn(Cc3ccc(F)cc3)c3cnc4c(=O)n(O)ccc4c23)CC1 [Example 32],6.97
5,"O=c1c2ncc3c(c(CN4CCC(O)CC4)cn3Cc3ccc(F)cc3)c2ccn1O [Example 53, 3-(4-fluorobenzyl)-7-hydroxy-1-[(4-hydroxypiperidin-1-yl)methyl]-3,7-dihydro-6H-pyrrolo[2,3-c]-1,7-naphthyridin-6-one]",8.15
6,"O=c1c2ncc3c(c(COC[C@@H](O)CO)cn3Cc3ccc(F)cc3)c2ccn1O [Example 31, 1-({[(2S)-2,3-dihydroxypropyl]oxy}methyl)-3-(4-fluorobenzyl)-7-hydroxy-3,7-dihydro-6H-pyrrolo(2,3-c]-1,7-naphthyridin-6-one]",8.05
7,"O=C(NCC(F)(F)F)c1cn(Cc2ccc(F)cc2)c2cnc3c(=O)n(O)ccc3c12 [Example 30, 3-(4-fluorobenzyl)-7-hydroxy-6-oxo-N-(2,2,2-trifluoroethyl)-6,7-dihydro-3H-pyrrolo[2,3-c]-1,7-naphthyridine-1-carboxamide]",7.89
8,"O=C1CCCN1CC1(O)CCN(Cc2cn(Cc3ccc(F)cc3)c3cnc4c(=O)n(O)ccc4c23)CC1 [Example 18, 3-(4-fluorobenzyl)-7-hydroxy-1-({4-hydroxy-4-[(2-oxopyrrolidin-1-yl)methyl]piperidin-1-yl}methyl)-3,7-dihydro-6H-pyrrolo[2,3-c]-1,7-naphthyridin-6-one]",7.96
9,"NC(=O)[C@@H]1CCCN1S(=O)(=O)c1cn(Cc2ccc(F)cc2)c2cnc3c(=O)n(O)ccc3c12 [Example 20, 1-{[3-(4-fluorobenzyl)-7-hydroxy-6-oxo-6,7-dihydro-3H-pyrrolo[2,3-c]-1,7-naphthyridin-1-yl]sulfonyl)-L-prolinamide]",8.05
10,"O=C(NCCc1cnccn1)c1cn(Cc2ccc(F)cc2)c2cnc3c(=O)n(O)ccc3c12 [Example 28, 3-(4-fluorobenzyl)-7-hydroxy-6-oxo-N-(2-pyrazin-2-ylethyl)-6,7-dihydro-3H-pyrrolo[2,3-c]-1,7-naphthyridine-1-carboxamide]",7.92
11,"O=C1NC[C@@H]2CCN(Cc3cn(Cc4ccc(F)cc4)c4cnc5c(=O)n(O)ccc5c34)C[C@H]12 [Example 56, 3-(4-fluorobenzyl)-7-hydroxy-1-{[(3aR,7aR)-3-oxooctahydro-5H-pyrrolo[3,4-c]pyridin-5-yl]methyl}-3,7-dihydro-6H-pyrrolo[2,3-c]-1,7-naphthyridin-6-one]",7.94
12,"O=C1CN(Cc2cn(Cc3ccc(F)cc3)c3cnc4c(=O)n(O)ccc4c23)CCN1 [Example 6, 3-(4-fluorobenzyl)-7-hydroxy-1-[(3-oxopiperazin-1-yl)methyl]-3,7-dihydro-6H-pyrrolo(2,3-c]-1,7-naphthyridin-6-one]",8.15
13,"Cc1cc2c(ncc3c2ccn3Cc2ccc(F)cc2)c(=O)n1O [Example 47, 3-(4-fluorobenzyl)-7-hydroxy-8-methyl-3,7-dihydro-6H-pyrrolo[2,3-c]-1,7-naphthyridin-6-one]",7.96
14,"O=c1c2ncc3c(c(CNCc4ccc(C(F)(F)F)cc4)cn3Cc3ccc(F)cc3)c2ccn1O [Example 43, 3-(4-fluorobenzyl)-7-hydroxy-1-({[4-(trifluoromethyl)benzyl]amino}methyl)3,7-dihydro-6H-pyrrolo[2,3-c]-1,7-naphthyridin-6-one]",6.91
15,"CCCN(CCO)Cc1cn(Cc2ccc(F)cc2)c2cnc3c(=O)n(O)ccc3c12 [Example 48, 3-(4-fluorobenzyl)-7-hydroxy-1-{[(2-hydroxyethyl)(propyl)amino]methyl}-3,7-dihydro-6H-pyrrolo[2,3-c]-1,7-naphthyridin-6-one]",7.96
16,"O=C1c2ncc3c(ccn3Cc3ccc(F)cc3)c2CCCN1O [Example 3, 3-(4-Fluorobenzyl)-7-hydroxy-7,8,9,10-tetrahydropyrrolo[3′,2′:4,5]pyrido[2,3-c]azepin-6(3H)-one]",7.77
17,O=c1c2ncc3c(c(CNCc4ccccn4)cn3Cc3ccc(F)cc3)c2ccn1O [Example 44],7.51
18,"Cc1cccc(CNCc2cn(Cc3ccc(F)cc3)c3cnc4c(=O)n(O)ccc4c23)c1 [Example 41, 3-(4-fluorobenzyl)-7-hydroxy-1-{[(3-methylbenzyl)amino]methyl}-3,7-dihydro-6H-pyrrolo[2,3-c]-1,7-naphthyridin-6-one]",7.38
19,"CCS(=O)(=O)N1CCN(Cc2cn(Cc3ccc(F)cc3)c3cnc4c(=O)n(O)ccc4c23)CC1 [Example 52, 1-{[4-(ethylsulfonyl)piperazin-1-yl]methyl}-3-(4-fluorobenzyl)-7-hydroxy-3,7-dihydro-6H-pyrrolo[2,3-c]-1,7-naphthyridin-6-one]",7.98
20,"O=C(NCc1ccccn1)c1cn(Cc2ccc(F)cc2)c2cnc3c(=O)n(O)ccc3c12 [Example 29, 3-(4-fluorobenzyl)-7-hydroxy-6-oxo-N-(pyridin-2-ylmethyl)-6,7-dihydro-3H-pyrrolo[2,3-c]-1,7-naphthyridine-1-carboxamide]",7.92
21,"O=c1c2ncc3c(c(CN4CCN5C[C@H](O)CC5C4)cn3Cc3ccc(F)cc3)c2ccn1O (stereo partly drawn) [Example 55, 3-(4-fluorobenzyl)-7-hydroxy-1-{[(7R)-7-hydroxyhexahydropyrrolo [1,2-a]pyrazin-2(1H)-yl]methyl}-3,7-dihydro-6H-pyrrolo[2,3-c]-1,7-naphthyridin-6-one]",8.15
22,"O=c1c2ncc3c(c(CNC4(CO)CCCC4)cn3Cc3ccc(F)cc3)c2ccn1O [Example 39, 3-(4-fluorobenzyl)-7-hydroxy-1-({[1-(hydroxymethyl)cyclopentyl]amino)methyl)-3,7-dihydro-6H-pyrrolo[2,3-c]-1,7-naphthyridin-6-one]",7.10
23,"NC(=O)[C@H]1CCCN1Cc1cn(Cc2ccc(F)cc2)c2cnc3c(=O)n(O)ccc3c12 [Example 12, 1-{[3-(4-fluorobenzyl)-7-hydroxy-6-oxo-6,7-dihydro-3H-pyrrolo[2,3-c]-1,7-naphthyridin-1-yl]methyl)-D-prolinamide]",7.89
24,"CCN(Cc1cn(Cc2ccc(F)cc2)c2cnc3c(=O)n(O)ccc3c12)C1CCCCC1 [Example 14, 1-{[cyclohexyl(ethyl)amino]methyl}-3-(4-fluorobenzyl)-7-hydroxy-3,7-dihydro-6H-pyrrolo[2,3-c]-1,7-naphthyridin-6-one]",7.89
